Columns and labels:
NIH3T3 = assay: Antiproliferative activity against mouse NIH/3T3 cells after 72 hrs by MTT assay; settings: NIH3T3, 72 h
A-431 = assay: Antiproliferative activity against human A431 cells overexpressing EGFR after 72 hrs by MTT assay; settings: A-431, 72 h
[1] = target: Epidermal growth factor receptor (Homo sapiens, UniProt P00533); assay: Inhibition of EGFR after 50 mins by HTRF assay
Chain of Epidermal growth factor receptor (P00533 whole entry): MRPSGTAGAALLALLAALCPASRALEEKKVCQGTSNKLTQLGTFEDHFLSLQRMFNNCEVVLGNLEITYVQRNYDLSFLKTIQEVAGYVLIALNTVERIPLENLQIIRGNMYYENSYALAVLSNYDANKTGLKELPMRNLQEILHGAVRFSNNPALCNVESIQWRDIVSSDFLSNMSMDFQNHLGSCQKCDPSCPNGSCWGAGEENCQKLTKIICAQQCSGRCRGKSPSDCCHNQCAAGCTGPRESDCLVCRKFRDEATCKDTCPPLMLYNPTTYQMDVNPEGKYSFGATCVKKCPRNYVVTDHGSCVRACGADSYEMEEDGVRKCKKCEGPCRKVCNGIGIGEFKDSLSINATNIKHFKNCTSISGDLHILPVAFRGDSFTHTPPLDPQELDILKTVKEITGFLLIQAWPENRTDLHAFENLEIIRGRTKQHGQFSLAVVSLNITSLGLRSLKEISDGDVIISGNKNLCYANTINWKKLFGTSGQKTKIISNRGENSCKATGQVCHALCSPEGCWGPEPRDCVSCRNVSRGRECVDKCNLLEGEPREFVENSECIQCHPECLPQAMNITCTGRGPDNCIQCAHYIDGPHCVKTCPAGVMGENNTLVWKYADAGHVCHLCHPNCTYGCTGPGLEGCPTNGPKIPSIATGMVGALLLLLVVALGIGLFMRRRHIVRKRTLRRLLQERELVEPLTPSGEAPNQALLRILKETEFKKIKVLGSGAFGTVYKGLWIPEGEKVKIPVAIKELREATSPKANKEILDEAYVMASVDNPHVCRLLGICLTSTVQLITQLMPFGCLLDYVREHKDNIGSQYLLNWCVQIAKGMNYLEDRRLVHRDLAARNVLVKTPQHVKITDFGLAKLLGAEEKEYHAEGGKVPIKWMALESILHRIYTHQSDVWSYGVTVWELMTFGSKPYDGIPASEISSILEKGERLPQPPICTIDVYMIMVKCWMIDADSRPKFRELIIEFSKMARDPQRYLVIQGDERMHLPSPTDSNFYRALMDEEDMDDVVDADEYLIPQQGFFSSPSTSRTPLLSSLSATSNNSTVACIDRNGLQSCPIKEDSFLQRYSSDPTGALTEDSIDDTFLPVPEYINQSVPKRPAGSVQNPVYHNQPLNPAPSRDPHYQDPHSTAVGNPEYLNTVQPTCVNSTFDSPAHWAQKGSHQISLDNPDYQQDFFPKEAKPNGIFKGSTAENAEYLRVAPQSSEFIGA

SMILES	IC50 (NIH3T3)	IC50 (A-431)	IC50 [1]
C=C(N/N=C/c1cn[nH]c1-c1ccccc1)[C@H](C)Cc1ccccc1	> 50 µM		
O=C1NN(c2ccc(F)cc2)C(=O)/C1=C\c1cccc(OCc2ccccc2F)c1	23.1 µM	18.9 µM	5.6 µM
O=C(Cc1ccc(F)cc1)Nc1cc(SC[C@@H](O)CO)cc([N+](=O)[O-])c1	> 50 µM	26.8 µM	48.6 µM
Cn1c(NCc2cccc(C(F)(F)F)c2)cc(=O)n(C)c1=O	> 50 µM	> 50 µM	83.9 µM
Cc1ccc(N2NC(=O)/C(=C\c3ccc(-c4cc([N+](=O)[O-])ccc4O)o3)C2=O)cc1C	37.2 µM		
Cc1cccc(N2NC(=O)/C(=C/c3ccc(-c4ccccc4F)o3)C2=O)c1	> 50 µM	30 µM	23.1 µM
Nc1nn2c(=O)cc(-c3ccccc3)[nH]c2c1/N=N/c1ccc2c(c1)OCO2	46 µM	16.7 µM	5.3 µM
CCOc1ccc(-c2cc(C(F)(F)F)c(C#N)c(SCC(=O)NCC(=O)O)n2)cc1	> 50 µM	> 50 µM	8.4 µM
Cc1ccc(N2NC(=O)/C(=C/c3ccc(OCc4ccccc4)cc3)C2=O)cc1Cl	41.3 µM	14 µM	8.6 µM
CS(=O)(=O)CCNCc1ccc(-c2ccc3ncnc(Nc4ccc(OCc5cccc(F)c5)c(Cl)c4)c3c2)o1 [LAPATINIB]	4.3 µM		
O=C(Cn1c(-c2ccccc2)cc(=O)n2ncnc12)NNC(=S)Nc1ccccc1	20 µM	19.4 µM	6.8 µM
Cc1nn(C)cc1C(=O)Nc1ccn(Cc2c(F)cccc2Cl)n1	> 50 µM		
O=S(=O)(c1ccc(/N=C/c2cc(Br)ccc2O)cc1)N1CCCCC1	> 50 µM	39.6 µM	9.7 µM
O=C1NN(c2ccc(F)c(Cl)c2)C(=O)/C1=C\c1cccc(OC(=O)c2cccs2)c1	28.2 µM	23.2 µM	3.5 µM

From ChEMBL document CHEMBL2029299, “Discovery of novel EGFR tyrosine kinase inhibitors by structure-based virtual screening” (Bioorg Med Chem Lett, 2012)
